From patent US11555012B2 (Nimbus Artemis, Inc., priority 2018, dated 2023)

Tests used:
ACL [1] = target: T1, ACL (Homo sapiens (Human), UniProt P53396); experiment: ADP-Glo Assay
Target sequence in this assay (P53396 other isoform, or with tags, fused parts or gaps isoform P53396-2): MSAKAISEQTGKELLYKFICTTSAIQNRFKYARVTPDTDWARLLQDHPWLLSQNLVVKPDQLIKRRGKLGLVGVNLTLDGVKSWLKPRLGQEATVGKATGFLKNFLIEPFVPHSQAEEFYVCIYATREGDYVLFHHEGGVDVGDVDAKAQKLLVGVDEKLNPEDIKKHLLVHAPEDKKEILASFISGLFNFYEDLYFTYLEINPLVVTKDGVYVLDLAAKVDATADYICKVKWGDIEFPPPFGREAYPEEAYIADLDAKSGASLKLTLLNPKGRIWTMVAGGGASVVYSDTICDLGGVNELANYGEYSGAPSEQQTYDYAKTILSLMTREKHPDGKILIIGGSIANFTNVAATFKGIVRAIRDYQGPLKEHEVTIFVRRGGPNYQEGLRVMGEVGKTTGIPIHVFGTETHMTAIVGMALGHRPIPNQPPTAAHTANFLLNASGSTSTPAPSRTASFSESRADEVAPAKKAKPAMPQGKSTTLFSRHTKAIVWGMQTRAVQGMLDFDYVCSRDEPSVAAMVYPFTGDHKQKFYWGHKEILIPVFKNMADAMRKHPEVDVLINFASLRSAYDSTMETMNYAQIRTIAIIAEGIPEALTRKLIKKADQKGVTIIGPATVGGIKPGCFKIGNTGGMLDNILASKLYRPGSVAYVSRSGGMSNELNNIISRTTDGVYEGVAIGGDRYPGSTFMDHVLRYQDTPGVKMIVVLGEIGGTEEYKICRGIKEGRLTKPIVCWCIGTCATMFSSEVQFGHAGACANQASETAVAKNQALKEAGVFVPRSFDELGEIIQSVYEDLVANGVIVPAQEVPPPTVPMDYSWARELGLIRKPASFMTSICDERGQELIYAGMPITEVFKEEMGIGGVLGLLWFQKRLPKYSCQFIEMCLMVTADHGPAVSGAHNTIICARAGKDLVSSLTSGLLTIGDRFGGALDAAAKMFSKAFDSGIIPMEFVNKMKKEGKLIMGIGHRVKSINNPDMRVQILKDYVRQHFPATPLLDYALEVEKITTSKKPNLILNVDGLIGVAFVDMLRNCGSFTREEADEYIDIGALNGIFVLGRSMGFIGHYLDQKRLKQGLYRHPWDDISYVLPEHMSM

ACL [2] = target: T1, ACL; experiment: ACLY-MDH Coupled Assay
Target sequence in this assay (P53396 whole entry, species assumed): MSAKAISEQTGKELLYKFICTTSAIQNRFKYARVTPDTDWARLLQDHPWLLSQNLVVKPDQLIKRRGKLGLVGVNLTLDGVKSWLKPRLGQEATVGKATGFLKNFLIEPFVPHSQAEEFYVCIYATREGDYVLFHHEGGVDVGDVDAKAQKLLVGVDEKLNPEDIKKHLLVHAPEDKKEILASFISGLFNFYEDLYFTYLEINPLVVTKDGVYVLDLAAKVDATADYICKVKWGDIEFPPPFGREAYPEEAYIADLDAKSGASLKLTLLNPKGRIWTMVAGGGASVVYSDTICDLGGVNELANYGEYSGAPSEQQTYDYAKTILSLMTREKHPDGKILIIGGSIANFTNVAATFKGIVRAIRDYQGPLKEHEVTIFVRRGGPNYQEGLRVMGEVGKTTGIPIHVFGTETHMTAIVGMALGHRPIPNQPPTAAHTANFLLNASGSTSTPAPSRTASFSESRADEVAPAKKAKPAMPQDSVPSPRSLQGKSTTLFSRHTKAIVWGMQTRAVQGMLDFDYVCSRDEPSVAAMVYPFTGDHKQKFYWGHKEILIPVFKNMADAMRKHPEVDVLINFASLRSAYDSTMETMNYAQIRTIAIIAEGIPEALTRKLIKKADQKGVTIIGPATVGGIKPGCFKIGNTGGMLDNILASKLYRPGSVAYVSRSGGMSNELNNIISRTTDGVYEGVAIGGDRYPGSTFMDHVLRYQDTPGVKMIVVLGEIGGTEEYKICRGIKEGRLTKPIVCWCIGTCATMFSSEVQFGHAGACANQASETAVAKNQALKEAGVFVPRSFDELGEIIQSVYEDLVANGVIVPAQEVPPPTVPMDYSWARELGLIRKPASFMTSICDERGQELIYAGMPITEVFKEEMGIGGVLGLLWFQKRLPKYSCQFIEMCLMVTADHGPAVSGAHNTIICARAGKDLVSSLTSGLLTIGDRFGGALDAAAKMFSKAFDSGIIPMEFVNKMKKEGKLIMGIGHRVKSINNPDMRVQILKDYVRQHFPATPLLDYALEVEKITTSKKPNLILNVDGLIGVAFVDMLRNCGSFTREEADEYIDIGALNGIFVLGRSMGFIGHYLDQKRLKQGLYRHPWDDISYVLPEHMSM
Procedure: Compounds of the present invention were evaluated in an ACLY Coupled Assay.
The assay protocol for the Coupled Assay (below) was followed:
b) Add 1 μL cpds to 96 assay plate, Test cpd conc: 100/30/10 μM top dose, 3 folds dilution, 10+0+control (control: buffer without ACL+DMSO) points, 1000 rpm for 1 min, incubation at 25° C. for 60 min

[3] = read-out: ACL-ADP-Glo (IC50), 3 nM ACL, 15 μM ATP, 3 μM CoA, 300 μM Citrate
[4] = read-out: ACL-MDH Coupled Assay (IC50), 8 nM ACL, 60 μM CoA Na2, 85 μM Citrate, 250 μM ATP, 250 μM NADH

| IC50 (ACL [1]) | IC50 (ACL [2]) | IC50 (ACL [1]; [3]) | IC50 (ACL [2]; [4]) | SMILES |
| --- | --- | --- | --- | --- |
| 0.5 to 20 µM | 0.5 to 30 µM | – | – | COc1ccc(-c2ccccc2)cc1NS(=O)(=O)c1cccc(-c2nn[nH]n2)c1 [I-19, N-(4-methoxy-[1,1′-biphenyl]-3-yl)-3-(2H-tetrazol-5-yl)benzenesulfonamide] |
| 0.5 to 20 µM | 0.5 to 30 µM | – | – | Cc1cc(C)cc(S(=O)(=O)Nc2cc(-c3ccccc3)ccc2C(=O)O)c1 [I-232, 3-((3,5-dimethylphenyl)sulfonamido)-[1,1′-biphenyl]-4-carboxylic acid] |
| – | – | < 0.05 µM | < 0.05 µM | O=C(c1cc(Cl)c(O)c(S(=O)(=O)Nc2cc(-c3ccccc3)c(F)cc2F)c1)N1CC[C@H](O)C1 [I-105, (S)-3-chloro-N-(4,6-difluoro-[1,1′-biphenyl]-3-yl)-2-hydroxy-5-(3-hydroxypyrrolidine-1-carbonyl)benzenesulfonamide] |
| 0.5 to 20 µM | 0.5 to 30 µM | – | – | CC(C)(Oc1ccc(-c2ccccc2)cc1NS(=O)(=O)c1cc(Cl)cc(Cl)c1O)C(=O)O [I-239, 2-((3-((3,5-dichloro-2-hydroxyphenyl)sulfonamido)-[1,1′-biphenyl]-4-yl)oxy)-2-methylpropanoic Acid] |
| – | 0.05 to 0.5 µM | < 0.05 µM | – | O=C(c1cc(Cl)c(O)c(S(=O)(=O)Nc2cc(-c3ccccc3)c(F)cc2F)c1)N1CC(O)C1 [I-129, 3-chloro-N-(4,6-difluoro-[1,1′-biphenyl]-3-yl)-2-hydroxy-5-(3-hydroxyazetidine-1-carbonyl)benzenesulfonamide] |
| 0.5 to 20 µM | 0.5 to 30 µM | – | – | O=C(O)c1cc(Cl)c(O)c(S(=O)(=O)Nc2cc(-c3ccccc3)cc(F)c2F)c1 [I-115, 3-chloro-5-[(2,3-difluoro-5-phenylphenyl)sulfamoyl]-4-hydroxybenzoic Acid] |
| 0.5 to 20 µM | 0.5 to 30 µM | – | – | O=C(Nc1cc(-c2cc3ccccc3s2)ccc1C(=O)O)c1cc(Cl)cc(Cl)c1 [I-515, 4-(benzo[b]thiophen-2-yl)-2-(3,5-dichlorobenzamido)benzoic Acid] |
| 0.5 to 20 µM | 0.5 to 30 µM | – | – | O=S(=O)(c1cc(Cl)cc(Cl)c1O)N(Cc1ccccc1)Cc1cccc(-c2ccccc2)c1 [I-67, N-([1,1′-biphenyl]-3-ylmethyl)-N-benzyl-3,5-dichloro-2-hydroxybenzenesulfonamide] |
| 0.5 to 20 µM | 0.5 to 30 µM | – | – | O=C(O)c1ccc(-c2cc3ccccc3s2)cc1NS(=O)(=O)c1cc(Cl)cc(Cl)c1 [I-293, 4-(benzo[b]thiophen-2-yl)-2-((3,5-dichlorophenyl)sulfonamido)benzoic acid] |
| 0.5 to 20 µM | 0.5 to 30 µM | – | – | N#Cc1cc(Cl)cc(S(=O)(=O)Nc2cc(-c3ccccc3)ccc2C(=O)O)c1 [I-226, 3-((3-chloro-5-cyanophenyl)sulfonamido)-[1,1′-biphenyl]-4-carboxylic acid] |
| – | – | < 0.05 µM | < 0.05 µM | O=C(c1cc(Cl)c(O)c(S(=O)(=O)Nc2cc(-c3ccccc3)cc(F)c2F)c1)N1CCCC1 [I-159, 3-chloro-N-[4,5-difluoro-[1,1-biphenyl]-3-yl]-2-hydroxy-5-(pyrrolidine-1-carbonyl)benzene-1-sulfonamide] |
| 0.5 to 20 µM | 0.5 to 30 µM | – | – | O=C(c1cc(Cl)c(O)c(S(=O)(=O)Nc2cc(C3CC3)c(F)cc2F)c1)N1CCCC1 [I-193, 3-chloro-N-(5-cyclopropyl-2,4-difluorophenyl)-2-hydroxy-5-(pyrrolidine-1-carbonyl)benzene-1-sulfonamide] |
| 0.5 to 20 µM | 0.5 to 30 µM | – | – | O=C(Nc1cc(-c2ccccc2)c(F)cc1F)c1cc(Br)cc(Cl)c1O [I-139, 5-bromo-3-chloro-N-(4,6-difluoro-[1,1′-biphenyl]-3-yl)-2-hydroxybenzamide] |
| 0.5 to 20 µM | 0.5 to 30 µM | – | – | O=C(O)c1ccc(-c2ccccc2)cc1NS(=O)(=O)c1cc(Cl)cc(Cl)c1O [I-249, 3-((3,5-dichloro-2-hydroxyphenyl)sulfonamido)-[1,1′-biphenyl]-4-carboxylic acid] |
| 0.5 to 20 µM | 0.5 to 30 µM | – | – | Cc1sc2ccccc2c1S(=O)(=O)Nc1cc(-c2ccccc2)ccc1C(=O)O [I-333] |
| 0.5 to 20 µM | 0.5 to 30 µM | – | – | O=C(O)c1cc(Cl)c(O)c(S(=O)(=O)Nc2cc(-c3ccccc3)ccc2F)c1 [I-107, 3-chloro-5-[(2-fluoro-5-phenylphenyl)sulfamoyl]-4-hydroxybenzoic Acid] |
| 0.05 to 0.5 µM | 0.5 to 30 µM | – | – | CO[C@@H]1CCN(C(=O)c2cc(Cl)c(O)c(S(=O)(=O)Nc3cc(-c4ccccc4)c(F)cc3F)c2)C1 [I-104, 3-chloro-N-(2,4-difluoro-5-phenylphenyl)-2-hydroxy-5-[[(3R)-3-methoxypyrrolidin-1-yl]carbonyl]benzene-1-sulfonamide] |
| 0.5 to 20 µM | 0.5 to 30 µM | – | – | O=S(=O)(Nc1cc(-c2ccccc2)ccn1)c1cc(Cl)cc(Br)c1O [I-32] |
| – | 0.05 to 0.5 µM | < 0.05 µM | – | CC(=O)NCCOC(=O)c1cc(Cl)c(O)c(S(=O)(=O)Nc2cc(-c3ccccc3)c(F)cc2F)c1 [I-112, 2-acetamidoethyl 3-chloro-5-(N-(4,6-difluoro-[1,1′-biphenyl]-3-yl)sulfamoyl)-4-hydroxybenzoate] |

| IC50 (ACL [1]) | IC50 (ACL [2]) | IC50 (ACL [1]; [3]) | IC50 (ACL [2]; [4]) | SMILES |
| --- | --- | --- | --- | --- |
| 0.5 to 20 µM | 0.5 to 30 µM | – | – | O=C(c1cc(Cl)c(O)c(S(=O)(=O)Nc2cc(-c3ccccc3)c(F)cc2F)c1)N1CCOCC1 [I-99, 3-chloro-N-(4,6-difluoro-[1,1′-biphenyl]-3-yl)-2-hydroxy-5-(morpholine-4-carbonyl)benzenesulfonamide] |
| 0.5 to 20 µM | 0.5 to 30 µM | – | – | O=C(c1cc(Cl)c(O)c(S(=O)(=O)Nc2cc3ccsc3cc2F)c1)N1CCC1 [I-221, 5-(azetidine-1-carbonyl)-3-chloro-N-(6-fluoro-1-benzothiophen-5-yl)-2-hydroxybenzene-1-sulfonamide] |
| 0.5 to 20 µM | 0.5 to 30 µM | – | – | O=C(O)c1cc(F)c(-c2ccccc2)cc1NCc1cc(Cl)cc(Cl)c1 [I-317, 5-((3,5-dichlorobenzyl)amino)-2-fluoro-[1,1′-biphenyl]-4-carboxylic Acid] |
| 0.05 to 0.5 µM | 0.5 to 30 µM | – | – | O=C(O)COc1ccc(-c2ccccc2)cc1NS(=O)(=O)c1cc(Cl)cc(Cl)c1O [I-212, 2-[[3-(3,5-dichloro-2-hydroxybenzenesulfonamido)-[1,1-biphenyl]-4-yl]oxy]acetic Acid] |
| 0.5 to 20 µM | 0.05 to 0.5 µM | – | – | O=S(=O)(Nc1cc(-c2ccccc2)ccc1O)c1cc(Cl)cc(Cl)c1O [I-28, 3,5-dichloro-2-hydroxy-N-(2-hydroxy-5-phenylphenyl) benzene-1-sulfonamide] |
| 0.05 to 0.5 µM | 0.05 to 0.5 µM | – | – | COc1ccc(-c2ccccc2)cc1NS(=O)(=O)c1cc(C#N)cc(Cl)c1O [I-58, 3-chloro-5-cyano-2-hydroxy-N-(2-methoxy-5-phenylphenyl)benzene-1-sulfonamide] |
| 0.05 to 0.5 µM | 0.5 to 30 µM | – | – | COc1ccc(-c2ccccc2)cc1NS(=O)(=O)c1cc(C(N)=O)cc(Cl)c1O [I-55, 3-chloro-4-hydroxy-5-[(2-methoxy-5-phenylphenyl)sulfamoyl]benzamide] |
| 0.05 to 0.5 µM | 0.05 to 0.5 µM | – | – | O=C(c1cc(Cl)c(O)c(S(=O)(=O)Nc2cc(C3CC3)c(F)cc2F)c1)N1CCC1 [I-137, 5-(azetidine-1-carbonyl)-3-chloro-N-(5-cyclopropyl-2,4-difluorophenyl)-2-hydroxybenzene-1-sulfonamide] |
| 0.05 to 0.5 µM | 0.05 to 0.5 µM | – | – | O=C(O)c1cc(Cl)c(O)c(S(=O)(=O)Nc2cc(-c3ccccc3)c(F)cc2F)c1 [I-95, 3-chloro-5-(N-(4,6-difluoro-[1,1′-biphenyl]-3-yl)sulfamoyl)-4-hydroxybenzoic Acid] |
| – | – | < 0.05 µM | < 0.05 µM | CO[C@H]1CCN(C(=O)c2cc(Cl)c(O)c(S(=O)(=O)Nc3cc(-c4ccccc4)c(F)cc3F)c2)C1 [I-103, 3-chloro-N-(2,4-difluoro-5-phenylphenyl)-2-hydroxy-5-[[(3S)-3-methoxypyrrolidin-1-yl]carbonyl]benzene-1-sulfonamide] |
| 0.5 to 20 µM | 0.5 to 30 µM | – | – | O=C(O)c1ccc(-c2ccccc2)cc1NS(=O)(=O)c1cc(Cl)sc1Cl [I-331] |
| 0.5 to 20 µM | 0.5 to 30 µM | – | – | O=C(O)COc1ccc(-c2ccccc2)cc1NS(=O)(=O)c1cc(C(F)(F)F)cc(Cl)c1O [I-264, 2-([3-[3-chloro-2-hydroxy-5-(trifluoromethyl)benzenesulfonamido]-[1,1-biphenyl]-4-yl]oxy)acetic Acid] |
| 0.5 to 20 µM | 0.5 to 30 µM | – | – | O=C(O)c1ccc(-c2ccccc2)cc1NS(=O)(=O)c1c(Cl)nc2sccn12 [I-332] |
| 0.5 to 20 µM | 0.5 to 30 µM | – | – | O=C(O)c1occc1NS(=O)(=O)c1cc(Cl)cc(Cl)c1 [I-316, 3-((3,5-dichlorophenyl)sulfonamido)furan-2-carboxylic acid] |
| – | 0.05 to 0.5 µM | < 0.05 µM | – | NC1CN(C(=O)c2cc(Cl)c(O)c(S(=O)(=O)Nc3cc(-c4ccccc4)c(F)cc3F)c2)C1 [I-200, 5-(3-aminoazetidine-1-carbonyl)-3-chloro-N-[4,6-difluoro-[1,1-biphenyl]-3-yl]-2-hydroxybenzene-1-sulfonamide] |
| 0.5 to 20 µM | 0.5 to 30 µM | – | – | COc1c(Cl)cc(Cl)cc1S(=O)(=O)Nc1cc(-c2cc3ccccc3s2)ccc1C(=O)O [I-297, 4-(benzo[b]thiophen-2-yl)-2-((3,5-dichloro-2-methoxyphenyl)sulfonamido)benzoic Acid] |
| 0.5 to 20 µM | 0.5 to 30 µM | – | – | CC(C)(C)OC(=O)COc1ccc(-c2ccccc2)cc1NS(=O)(=O)c1cc(C(=O)N2CCC2)cc(Cl)c1O [I-266, tert-butyl 2-((3-((5-(azetidine-1-carbonyl)-3-chloro-2-hydroxyphenyl)sulfonamido)-[1,1′-biphenyl]-4-yl)oxy)acetate] |
| 0.05 to 0.5 µM | 0.5 to 30 µM | – | – | O=C(c1cc(Cl)c(O)c(S(=O)(=O)Nc2cc(-n3nccn3)ccc2F)c1)N1CCC1 [I-241, 5-(azetidine-1-carbonyl)-3-chloro-N-(2-fluoro-5-(2H-1,2,3-triazol-2-yl)phenyl)-2-hydroxybenzenesulfonamide] |
| 0.5 to 20 µM | 0.5 to 30 µM | – | – | CC#Cc1cc(Cl)ccc1NS(=O)(=O)c1cc(Br)cc(Cl)c1O [I-512] |
